Assays:
Assay in all cases: cells
Type in all cases: functional, cell-based, Homo sapiens
COLO-800 = conditions: Homo sapiens, COLO-800;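 also: growth inhibition of COLO-800 cells, read out with a cell viability assay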
Description: SANGER: Inhibition of human COLO-800 cell growth in a cell viability assay.

CP66-MEL = conditions: Homo sapiens, CP66-MEL;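 also: growth inhibition of CP66-MEL cells determined in a cell viability assay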
Description: SANGER: Inhibition of human CP66-MEL cell growth in a cell viability assay.

D283 Med = conditions: Homo sapiens, D283 Med
Description: SANGER: Inhibition of human D-283MED cell growth in a cell viability assay.

D-502MG = conditions: Homo sapiens, D-502MG
Description: SANGER: Inhibition of human D-502MG cell growth in a cell viability assay.

DMS-79 = conditions: Homo sapiens, DMS-79;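 also: growth inhibition measured with a cell viability assay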
Description: SANGER: Inhibition of human DMS-79 cell growth in a cell viability assay.

EC-GI-10 = conditions: Homo sapiens, EC-GI-10
Description: SANGER: Inhibition of human EC-GI-10 cell growth in a cell viability assay.

ES3 = conditions: Homo sapiens, ES3;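 also: growth inhibition of ES3 cells, read out with a cell viability assay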
Description: SANGER: Inhibition of human ES3 cell growth in a cell viability assay.

ES8 = conditions: Homo sapiens, ES8;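 also: growth inhibition of human ES8 cells, read out with a cell viability assay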
Description: SANGER: Inhibition of human ES8 cell growth in a cell viability assay.

EW-18 = conditions: Homo sapiens, EW-18;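 also: growth inhibition of EW-18 cells, read out by a cell viability assay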
Description: SANGER: Inhibition of human EW-18 cell growth in a cell viability assay.

EW-3 = conditions: Homo sapiens, EW-3;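 also: cell viability assay read-out, IC50 reflects inhibition of growth of the EW-3 cells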
Description: SANGER: Inhibition of human EW-3 cell growth in a cell viability assay.

GT3TKB = conditions: Homo sapiens, GT3TKB;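 also: growth inhibition of the cell line, read out with a cell viability assay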
Description: SANGER: Inhibition of human GT3TKB cell growth in a cell viability assay.

HDLM-2 = conditions: Homo sapiens, HDLM-2;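 also: cell viability assay measuring suppression of HDLM-2 proliferation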
Description: SANGER: Inhibition of human HDLM-2 cell growth in a cell viability assay.

HOP-62 = conditions: Homo sapiens, HOP-62;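 also: cell growth inhibition determined with a viability assay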
Description: SANGER: Inhibition of human HOP-62 cell growth in a cell viability assay.

HT = conditions: Homo sapiens, HT
Description: SANGER: Inhibition of human HT cell growth in a cell viability assay.

IST-MEL1 = conditions: Homo sapiens, IST-MEL1;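 also: growth inhibition of the cell line, read out with a cell viability assay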
Description: SANGER: Inhibition of human IST-MEL1 cell growth in a cell viability assay.

IST-MES1 = conditions: Homo sapiens, IST-MES1;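 also: growth inhibition of IST-MES1 cells, measured with a cell viability assay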
Description: SANGER: Inhibition of human IST-MES1 cell growth in a cell viability assay.

JVM-3 = conditions: Homo sapiens, JVM-3;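 also: growth inhibition of human JVM-3 cells, read out with a cell viability assay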
Description: SANGER: Inhibition of human JVM-3 cell growth in a cell viability assay.

KARPAS-299 = conditions: Homo sapiens, KARPAS-299
Description: SANGER: Inhibition of human KARPAS-299 cell growth in a cell viability assay.

KLE = conditions: Homo sapiens, KLE;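 also: growth inhibition of human KLE cells, read out with a cell viability assay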
Description: SANGER: Inhibition of human KLE cell growth in a cell viability assay.

KM-H2 = conditions: Homo sapiens, KM-H2;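 also: growth inhibition of KM-H2 cells, read out by a cell viability assay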
Description: SANGER: Inhibition of human KM-H2 cell growth in a cell viability assay.

KMOE-2 = conditions: Homo sapiens, KMOE-2;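 also: growth inhibition of human KMOE-2 cells, read out with a cell viability assay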
Description: SANGER: Inhibition of human KMOE-2 cell growth in a cell viability assay.

KNS-81-FD = conditions: Homo sapiens, KNS-81-FD;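 also: growth inhibition of KNS-81-FD cells, read out with a cell viability assay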
Description: SANGER: Inhibition of human KNS-81-FD cell growth in a cell viability assay.

KS-1 = conditions: Homo sapiens, KS-1;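 also: growth inhibition of KS-1 cells, read out with a cell viability assay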
Description: SANGER: Inhibition of human KS-1 cell growth in a cell viability assay.

LB1047-RCC = conditions: Homo sapiens, LB1047-RCC;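 also: inhibition of cell growth, determined with a cell viability assay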
Description: SANGER: Inhibition of human LB1047-RCC cell growth in a cell viability assay.

LB373-MEL-D = conditions: Homo sapiens, LB373-MEL-D;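 also: growth inhibition of the cell line, read out in a cell viability assay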
Description: SANGER: Inhibition of human LB373-MEL-D cell growth in a cell viability assay.

LC-2-ad = conditions: Homo sapiens, LC-2-ad;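 also: growth inhibition of human LC-2-ad cells, read out with a cell viability assay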
Description: SANGER: Inhibition of human LC-2-ad cell growth in a cell viability assay.

LS-513 = conditions: Homo sapiens, LS-513
Description: SANGER: Inhibition of human LS-513 cell growth in a cell viability assay.

MHH-NB-11 = conditions: Homo sapiens, MHH-NB-11;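 also: growth inhibition of human MHH-NB-11 cells, read out by a cell viability assay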
Description: SANGER: Inhibition of human MHH-NB-11 cell growth in a cell viability assay.

MMAC-SF = conditions: Homo sapiens, MMAC-SF;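 also: growth inhibition of human MMAC-SF cells, read out with a cell viability assay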
Description: SANGER: Inhibition of human MMAC-SF cell growth in a cell viability assay.

NB10 = conditions: Homo sapiens, NB10;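 also: growth inhibition of NB10 cells, read out by a cell viability assay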
Description: SANGER: Inhibition of human NB10 cell growth in a cell viability assay.

NCI-H1092 = conditions: Homo sapiens, NCI-H1092;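 also: cell growth inhibition measured with a cell viability assay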
Description: SANGER: Inhibition of human NCI-H1092 cell growth in a cell viability assay.

NCI-H1155 = conditions: Homo sapiens, NCI-H1155;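 also: cell growth inhibition measured by a viability assay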
Description: SANGER: Inhibition of human NCI-H1155 cell growth in a cell viability assay.

NCI-H1648 = conditions: Homo sapiens, NCI-H1648;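 also: cell viability assay measuring inhibition of NCI-H1648 cell growth, from the Sanger screening data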
Description: SANGER: Inhibition of human NCI-H1648 cell growth in a cell viability assay.

NCI-H1770 = conditions: Homo sapiens, NCI-H1770;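 also: growth inhibition of NCI-H1770 cells determined with a viability readout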
Description: SANGER: Inhibition of human NCI-H1770 cell growth in a cell viability assay.

NCI-H69 = conditions: Homo sapiens, NCI-H69;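 also: growth inhibition of the cell line, read out with a cell viability assay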
Description: SANGER: Inhibition of human NCI-H69 cell growth in a cell viability assay.

NCI-H747 = conditions: Homo sapiens, NCI-H747;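 also: growth inhibition of human NCI-H747 cells, read out by a cell viability assay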
Description: SANGER: Inhibition of human NCI-H747 cell growth in a cell viability assay.

NEC8 = conditions: Homo sapiens, NEC8;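 also: growth inhibition of human NEC8 cells, read out by a cell viability assay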
Description: SANGER: Inhibition of human NEC8 cell growth in a cell viability assay.

OMC-1 = conditions: Homo sapiens, OMC-1;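 also: growth inhibition of the OMC-1 cell line, measured by a cell viability assay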
Description: SANGER: Inhibition of human OMC-1 cell growth in a cell viability assay.

RKO = conditions: Homo sapiens, RKO;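 also: growth inhibition of human RKO cells, read out with a cell viability assay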
Description: SANGER: Inhibition of human RKO cell growth in a cell viability assay.

RS4-11 = conditions: Homo sapiens, RS4-11;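 also: growth inhibition of RS4-11 cells, read out by a cell viability assay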
Description: SANGER: Inhibition of human RS4-11 cell growth in a cell viability assay.

SK-LMS-1 = conditions: Homo sapiens, SK-LMS-1;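 also: growth inhibition of human SK-LMS-1 cells, read out with a cell viability assay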
Description: SANGER: Inhibition of human SK-LMS-1 cell growth in a cell viability assay.

SK-PN-DW = conditions: Homo sapiens, SK-PN-DW;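 also: growth inhibition measured with a viability assay on these cells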
Description: SANGER: Inhibition of human SK-PN-DW cell growth in a cell viability assay.

ACN = conditions: Homo sapiens, ACN;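 also: growth inhibition of the human ACN cell line, read out via cell viability testing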
Description: SANGER: Inhibition of human ACN cell growth in a cell viability assay.

ATN-1 = conditions: Homo sapiens, ATN-1;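 also: growth inhibition of human ATN-1 cells, read out with a cell viability assay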
Description: SANGER: Inhibition of human ATN-1 cell growth in a cell viability assay.

BB65-RCC = conditions: Homo sapiens, BB65-RCC;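 also: growth inhibition of the cell line, measured with a cell viability assay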
Description: SANGER: Inhibition of human BB65-RCC cell growth in a cell viability assay.

BE-13 = conditions: Homo sapiens, BE-13;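 also: growth inhibition of human BE-13 cells, measured with a cell viability assay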
Description: SANGER: Inhibition of human BE-13 cell growth in a cell viability assay.

TK-10 = conditions: Homo sapiens, TK-10;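 also: growth inhibition of TK-10 cells, read out in a cell viability assay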
Description: SANGER: Inhibition of human TK10 cell growth in a cell viability assay.

CCRF-CEM = conditions: Homo sapiens, CCRF-CEM;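 also: inhibition of CCRF-CEM cell growth, measured by a cell viability assay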
Description: SANGER: Inhibition of human CCRF-CEM cell growth in a cell viability assay.

SMILES: Cc1ccc(-c2c(C(=O)CCl)n(CCCO)c3ncnc(N)c23)cc1
- IC50 (COLO-800): > 4000 nM
- IC50 (CP66-MEL): > 4000 nM
- IC50 (D283 Med): > 4000 nM
- IC50 (D-502MG): > 4000 nM
- IC50 (DMS-79): > 4000 nM
- IC50 (EC-GI-10): > 4000 nM
- IC50 (ES3): > 4000 nM
- IC50 (ES8): > 4000 nM
- IC50 (EW-18): > 4000 nM
- IC50 (EW-3): > 4000 nM
- IC50 (GT3TKB): > 4000 nM
- IC50 (HDLM-2): > 4000 nM
- IC50 (HOP-62): > 4000 nM
- IC50 (HT): > 4000 nM
- IC50 (IST-MEL1): > 4000 nM
- IC50 (IST-MES1): > 4000 nM
- IC50 (JVM-3): > 4000 nM
- IC50 (KARPAS-299): > 4000 nM
- IC50 (KLE): > 4000 nM
- IC50 (KM-H2): > 4000 nM
- IC50 (KMOE-2): > 4000 nM
- IC50 (KNS-81-FD): > 4000 nM
- IC50 (KS-1): 1050 nM
- IC50 (LB1047-RCC): > 4000 nM
- IC50 (LB373-MEL-D): > 4000 nM
- IC50 (LC-2-ad): 2740 nM
- IC50 (LS-513): > 4000 nM
- IC50 (MHH-NB-11): > 4000 nM
- IC50 (MMAC-SF): > 4000 nM
- IC50 (NB10): > 4000 nM
- IC50 (NCI-H1092): > 4000 nM
- IC50 (NCI-H1155): > 4000 nM
- IC50 (NCI-H1648): > 4000 nM
- IC50 (NCI-H1770): > 4000 nM
- IC50 (NCI-H69): > 4000 nM
- IC50 (NCI-H747): > 4000 nM
- IC50 (NEC8): > 4000 nM
- IC50 (OMC-1): > 4000 nM
- IC50 (RKO): > 4000 nM
- IC50 (RS4-11): > 4000 nM
- IC50 (SK-LMS-1): 1400 nM
- IC50 (SK-PN-DW): > 4000 nM
- IC50 (ACN): > 4000 nM
- IC50 (ATN-1): > 4000 nM
- IC50 (BB65-RCC): > 4000 nM
- IC50 (BE-13): > 4000 nM
- IC50 (TK-10): 1950 nM
- IC50 (CCRF-CEM): 2930 nM

SMILES: CC(=O)O[C@H]1C(=O)[C@@]2(C)[C@H]([C@H](OC(=O)c3ccccc3)[C@]3(O)C[C@H](OC(=O)[C@H](O)[C@@H](NC(=O)c4ccccc4)c4ccccc4)C(C)=C1C3(C)C)[C@]1(OC(C)=O)CO[C@@H]1C[C@@H]2O [PACLITAXEL]
- IC50 (COLO-800): > 102 nM
- IC50 (CP66-MEL): > 102 nM
- IC50 (D283 Med): > 102 nM
- IC50 (D-502MG): > 102 nM
- IC50 (DMS-79): > 102 nM
- IC50 (EC-GI-10): 72.6 nM
- IC50 (ES3): > 102 nM
- IC50 (ES8): 5.38 nM
- IC50 (EW-18): > 102 nM
- IC50 (EW-3): > 102 nM
- IC50 (GT3TKB): 4.34 nM
- IC50 (HDLM-2): 43.9 nM
- IC50 (HOP-62): 12.8 nM
- IC50 (HT): 80.9 nM
- IC50 (IST-MEL1): 26.2 nM
- IC50 (IST-MES1): 79.1 nM
- IC50 (JVM-3): > 102 nM
- IC50 (KARPAS-299): 39.8 nM
- IC50 (KLE): > 102 nM
- IC50 (KM-H2): 33.1 nM
- IC50 (KMOE-2): > 102 nM
- IC50 (KNS-81-FD): > 102 nM
- IC50 (KS-1): 5.82 nM
- IC50 (LB1047-RCC): 25.1 nM
- IC50 (LB373-MEL-D): 41.1 nM
- IC50 (LC-2-ad): 0.317 nM
- IC50 (LS-513): > 102 nM
- IC50 (MHH-NB-11): > 102 nM
- IC50 (MMAC-SF): 45.3 nM
- IC50 (NB10): > 102 nM
- IC50 (NCI-H1092): > 102 nM
- IC50 (NCI-H1155): > 102 nM
- IC50 (NCI-H1648): 4.69 nM
- IC50 (NCI-H1770): > 102 nM
- IC50 (NCI-H69): 17.8 nM
- IC50 (NCI-H747): 29.3 nM
- IC50 (NEC8): 52.9 nM
- IC50 (OMC-1): > 102 nM
- IC50 (RKO): 2.98 nM
- IC50 (RS4-11): 8.36 nM
- IC50 (SK-LMS-1): 4.01 nM
- IC50 (SK-PN-DW): 11.1 nM
- IC50 (ACN): 3.16 nM
- IC50 (ATN-1): 6.09 nM
- IC50 (BB65-RCC): 25.3 nM
- IC50 (BE-13): 6.36 nM
- IC50 (TK-10): 33.6 nM
- IC50 (CCRF-CEM): 8.71 nM

SMILES: COc1cc(-c2nn([C@H]3CC[C@H](N4CCN(C(C)=O)CC4)CC3)c3ncnc(N)c23)ccc1NC(=O)c1cc2ccccc2n1C
- IC50 (COLO-800): > 5120 nM
- IC50 (CP66-MEL): > 5120 nM
- IC50 (D283 Med): > 5120 nM
- IC50 (D-502MG): > 5120 nM
- IC50 (DMS-79): > 5120 nM
- IC50 (EC-GI-10): > 5120 nM
- IC50 (ES3): > 5120 nM
- IC50 (ES8): > 5120 nM
- IC50 (EW-18): > 5120 nM
- IC50 (EW-3): > 5120 nM
- IC50 (GT3TKB): > 5120 nM
- IC50 (HDLM-2): > 5120 nM
- IC50 (HOP-62): 475 nM
- IC50 (HT): > 5120 nM
- IC50 (IST-MEL1): 838 nM
- IC50 (IST-MES1): 1400 nM
- IC50 (JVM-3): > 5120 nM
- IC50 (KARPAS-299): > 5120 nM
- IC50 (KLE): 2500 nM
- IC50 (KM-H2): > 5120 nM
- IC50 (KMOE-2): > 5120 nM
- IC50 (KNS-81-FD): > 5120 nM
- IC50 (KS-1): 1030 nM
- IC50 (LB1047-RCC): 143 nM
- IC50 (LB373-MEL-D): > 5120 nM
- IC50 (LC-2-ad): 483 nM
- IC50 (LS-513): > 5120 nM
- IC50 (MHH-NB-11): > 5120 nM
- IC50 (MMAC-SF): > 5120 nM
- IC50 (NB10): > 5120 nM
- IC50 (NCI-H1092): > 5120 nM
- IC50 (NCI-H1155): > 5120 nM
- IC50 (NCI-H1648): 387 nM
- IC50 (NCI-H1770): > 5120 nM
- IC50 (NCI-H69): > 5120 nM
- IC50 (NCI-H747): 2860 nM
- IC50 (NEC8): > 5120 nM
- IC50 (OMC-1): > 5120 nM
- IC50 (RKO): 3460 nM
- IC50 (RS4-11): > 5120 nM
- IC50 (SK-LMS-1): > 5120 nM
- IC50 (SK-PN-DW): > 5120 nM
- IC50 (ACN): > 5120 nM
- IC50 (ATN-1): > 5120 nM
- IC50 (BB65-RCC): 5060 nM
- IC50 (BE-13): > 5120 nM
- IC50 (TK-10): 596 nM
- IC50 (CCRF-CEM): > 5120 nM

From ChEMBL document CHEMBL1201861, “Genomics of Drug Sensitity in Cancer screening data, Wellcome Trust Sanger Institute”
